This note sets out measurements from PubChem BioAssay AID651650 (Sanford-Burnham Center for Chemical Genomics, 2012).

Active and inactive are the calls of the source.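 Rule for the calls: active = mean IC50 below 20 µM in each of the two panels, so potent in both; inactive = the rest.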 Bounds are passed on as bounds.

For the test, the target named is Neuropilin-1 (Homo sapiens) (UniProt O14786). Briefly: blockers of CendR peptide binding to NRP-1 – biochemical, FP and AlphaScreen panel, dose response (AID 651650). As to conditions: NRP-1 b1b2 / RPARPAR peptide binding, FP or AlphaScreen. (Alpha assays give light when donor and acceptor beads are brought close together.)
[1] abbreviates: AlphaScreen, run 1, individual panel run IC50.
Setting [2] is: FP, run 1, individual panel run IC50.
[3] abbreviates: FP, run 2, individual panel run IC50.

Chain of Neuropilin-1 (Homo sapiens) (O14786 whole entry, looked up): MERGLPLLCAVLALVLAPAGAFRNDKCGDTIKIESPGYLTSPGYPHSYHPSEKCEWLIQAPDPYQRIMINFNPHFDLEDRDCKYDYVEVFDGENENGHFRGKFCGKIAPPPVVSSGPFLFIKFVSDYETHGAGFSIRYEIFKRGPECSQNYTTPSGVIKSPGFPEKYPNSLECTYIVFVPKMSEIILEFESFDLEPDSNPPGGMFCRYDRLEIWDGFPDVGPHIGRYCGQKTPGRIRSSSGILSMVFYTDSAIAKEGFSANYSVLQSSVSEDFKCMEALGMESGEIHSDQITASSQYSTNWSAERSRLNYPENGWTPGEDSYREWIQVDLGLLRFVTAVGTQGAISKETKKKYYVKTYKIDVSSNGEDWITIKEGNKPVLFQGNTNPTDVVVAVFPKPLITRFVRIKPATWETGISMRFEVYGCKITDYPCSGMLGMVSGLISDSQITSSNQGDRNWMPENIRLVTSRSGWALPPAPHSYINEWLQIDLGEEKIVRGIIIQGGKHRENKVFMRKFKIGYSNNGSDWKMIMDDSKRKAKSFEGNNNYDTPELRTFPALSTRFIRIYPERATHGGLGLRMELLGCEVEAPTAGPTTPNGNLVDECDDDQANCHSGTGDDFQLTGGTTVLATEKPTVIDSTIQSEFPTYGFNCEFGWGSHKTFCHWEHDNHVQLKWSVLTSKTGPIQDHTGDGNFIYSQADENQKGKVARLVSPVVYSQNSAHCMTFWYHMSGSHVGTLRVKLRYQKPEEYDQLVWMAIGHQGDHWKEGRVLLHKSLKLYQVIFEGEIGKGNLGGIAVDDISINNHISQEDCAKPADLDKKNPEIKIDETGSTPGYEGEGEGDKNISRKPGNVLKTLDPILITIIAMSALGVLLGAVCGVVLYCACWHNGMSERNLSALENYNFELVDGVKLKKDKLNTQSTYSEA

For the compound `CCN(CC)C(=O)C1CCCN(C(=O)Nc2ccc3nsnc3c2)C1` (stereo not given), the IC50 reads like this: (AlphaScreen, mean of runs) > 100 µM (inactive); under setting [1], more than 100 µM; (FP, mean of runs) > 95 µM (inactive); under setting [2], more than 95 µM; under setting [3], more than 95 µM.
As to `CCN(c1ccccc1)S(=O)(=O)c1ccc(C(=O)N(CCCN(C)C)c2nc3cc4c(cc3s2)OCO4)cc1`, the IC50 result (AlphaScreen, mean of runs) is “inactive”. The IC50 runs as follows: under setting [1], 37.1 µM; (FP, mean of runs) > 95 µM (inactive); under setting [2], more than 95 µM; under setting [3], more than 95 µM.
In the case of `CCOC(=O)[C@]12CCCC=C1N(CCC1=CCCCC1)C(=O)[C@H](CC(=O)NCC13CC4CC(CC(C4)C1)C3)C2`, the IC50 (AlphaScreen, mean of runs) was > 100 µM (inactive); the half-inhibitory concentration (IC50) under setting [1] is more than 100 µM; the IC50 (FP, mean of runs) is > 95 µM (inactive); the IC50 under setting [2] was more than 95 µM; the 50% inhibitory concentration (IC50) under setting [3] is more than 95 µM.
As for `NNc1ncnc2c1cnn2-c1ccccc1`, the IC50 is > 100 µM (inactive) (AlphaScreen, mean of runs); more than 100 µM under setting [1]; > 95 µM (inactive) (FP, mean of runs); more than 95 µM under setting [2]; more than 95 µM under setting [3].
With `COc1ccc(/C=N/NC(=O)c2ccccc2Cl)cc1CSc1nc2ccccc2s1`, the IC50 (AlphaScreen, mean of runs) was > 100 µM (inactive); the concentration for half-maximal inhibition (IC50) under setting [1] is more than 100 µM; the IC50 (FP, mean of runs) is > 95 µM (inactive); the IC50 under setting [2] was more than 95 µM; the IC50 under setting [3] was more than 95 µM.
With `COc1ccc(S(=O)(=O)N2CCCCC2)cc1NC(=O)c1c(F)cccc1Cl`, the IC50 (AlphaScreen, mean of runs) is > 100 µM (inactive); the IC50 under setting [1] was more than 100 µM; the IC50 (FP, mean of runs) was > 95 µM (inactive); the IC50 under setting [2] was more than 95 µM; the half-maximal inhibitory concentration (IC50) under setting [3] was more than 95 µM.
With `CN(C(=O)COC(=O)c1nc(-c2ccccc2)n(-c2ccccc2)n1)C1CCS(=O)(=O)C1` (stereo not given), the IC50 by setting is: (AlphaScreen, mean of runs) > 100 µM (inactive); under setting [1], more than 100 µM; (FP, mean of runs) > 95 µM (inactive); under setting [2], more than 95 µM; under setting [3], more than 95 µM.
Consider `O=C(NCCN1CCN(C(=O)c2cccc(OC(F)F)c2)CC1)c1cccc(OC(F)F)c1`, for which the IC50 is, setting by setting: (AlphaScreen, mean of runs) > 100 µM (inactive); under setting [1], more than 100 µM; (FP, mean of runs) > 95 µM (inactive); under setting [2], more than 95 µM; under setting [3], more than 95 µM.
With `O=C(Nc1ccccc1N1CCOCC1)c1ccc(N2CCCC2=O)cc1`, the IC50 reads like this: (AlphaScreen, mean of runs) > 100 µM (inactive); under setting [1], more than 100 µM; (FP, mean of runs) > 95 µM (inactive); under setting [2], more than 95 µM; under setting [3], more than 95 µM.
Consider `O=C(O)c1ccc(C(=O)Nc2cccc3ccccc23)c(C(=O)O)c1`, for which, where the note is “AlphaScreen, mean of runs”, the IC50 result is “inactive”. The IC50 is, setting by setting: under setting [1], 49.3 µM; (FP, mean of runs) > 95 µM (inactive); under setting [2], more than 95 µM; under setting [3], more than 95 µM.
Regarding `CCc1ccc(NS(=O)(=O)c2c(C(=O)N3CCCCCC3)c(C)n(C)c2C)cc1`, the IC50 is > 100 µM (inactive) (AlphaScreen, mean of runs); more than 100 µM under setting [1]; > 95 µM (inactive) (FP, mean of runs); more than 95 µM under setting [2]; more than 95 µM under setting [3].
For `COc1cccc(OCCNC(=O)Nc2cc(F)c(F)cc2Cl)c1`, the IC50 was > 100 µM (inactive) (AlphaScreen, mean of runs); more than 100 µM under setting [1]; > 95 µM (inactive) (FP, mean of runs); more than 95 µM under setting [2]; more than 95 µM under setting [3].
`O=C(NNC(=O)c1csc(N2CCOCC2)n1)c1ccc(=O)[nH]c1`: the IC50 (AlphaScreen, mean of runs) was > 100 µM (inactive); the 50% inhibitory concentration (IC50) under setting [1] is more than 100 µM; the IC50 (FP, mean of runs) is > 95 µM (inactive); the half-maximal inhibitory concentration (IC50) under setting [2] is more than 95 µM; the half-maximal inhibitory concentration (IC50) under setting [3] was more than 95 µM.
Turning to `Cc1cc(S(=O)(=O)NC2CCCCC2)ccc1OCC(=O)N1CCOCC1`, the IC50 (AlphaScreen, mean of runs) was 15.2 µM; the 50% inhibitory concentration (IC50) under setting [1] came to 15.2 µM; the IC50 (FP, mean of runs) is > 95 µM (inactive); the IC50 under setting [2] was more than 95 µM; the IC50 under setting [3] is more than 95 µM.
Turning to `CC(C)C1=C2CCCCC2NC(=O)N1` (stereo not given), the IC50 is, setting by setting: (AlphaScreen, mean of runs) > 100 µM (inactive); under setting [1], more than 100 µM; (FP, mean of runs) > 95 µM (inactive); under setting [2], more than 95 µM; under setting [3], more than 95 µM.
With `CN(C)CCn1c(=O)n(-c2ccc(F)cc2)c(=O)c2c3c(sc21)CCCCC3`, the IC50 result (AlphaScreen, mean of runs) is “inactive”. Also, the IC50 by setting is: under setting [1], 44.2 µM; (FP, mean of runs) > 95 µM (inactive); under setting [2], more than 95 µM; under setting [3], more than 95 µM.
As for `CCOC(=O)Cc1csc(NC(=O)CSc2ncnc3c2cnn3-c2ccccc2Cl)n1`, the IC50 is > 100 µM (inactive) (AlphaScreen, mean of runs); more than 100 µM under setting [1]; > 95 µM (inactive) (FP, mean of runs); more than 95 µM under setting [2]; more than 95 µM under setting [3].
With `Cc1ccc(C)c(-n2c(SCC(=O)NC(C(=O)O)C(C)C)nnc2-c2cccc(Cl)c2)c1` (stereo not given), the IC50 by setting is: (AlphaScreen, mean of runs) > 100 µM (inactive); under setting [1], more than 100 µM; (FP, mean of runs) > 95 µM (inactive); under setting [2], more than 95 µM; under setting [3], more than 95 µM.
As to `Cc1ccccc1NC(=O)c1cccc(NC(=O)CCC(=O)O)c1`, the IC50 reads like this: (AlphaScreen, mean of runs) > 100 µM (inactive); under setting [1], more than 100 µM; (FP, mean of runs) > 95 µM (inactive); under setting [2], more than 95 µM; under setting [3], more than 95 µM.
For the compound `CC(O)(c1cccnc1)c1nc(/C=C/c2ccccc2)cs1` (stereo not given), the IC50 reads like this: (AlphaScreen, mean of runs) > 100 µM (inactive); under setting [1], more than 100 µM; (FP, mean of runs) > 95 µM (inactive); under setting [2], more than 95 µM; under setting [3], more than 95 µM.
Consider `COCCNC(=S)N(CCc1c(C)[nH]c2ccc(F)cc12)Cc1cccs1`, for which the IC50 runs as follows: (AlphaScreen, mean of runs) > 100 µM (inactive); under setting [1], more than 100 µM; (FP, mean of runs) > 95 µM (inactive); under setting [2], more than 95 µM; under setting [3], more than 95 µM.
Take `COc1ccc(C(O)c2nc(-c3ccc4ccccc4c3)cs2)cc1` (stereo not given): the IC50 is > 100 µM (inactive) (AlphaScreen, mean of runs); more than 100 µM under setting [1]; > 95 µM (inactive) (FP, mean of runs); more than 95 µM under setting [2]; more than 95 µM under setting [3].
With `Cc1ccccc1NC(=S)NC(=O)COc1ccccc1C`, the concentration for half-maximal inhibition (IC50) (AlphaScreen, mean of runs) was 6.67 µM; the half-inhibitory concentration (IC50) under setting [1] amounted to 6.67 µM; the IC50 under setting [2] was determined as 32.6 µM; the IC50 under setting [3] worked out at 35 µM. Besides, the IC50 entry (FP, mean of runs) is “inactive”.
Regarding `COC(=O)C1=C(C)NC(C)=C(C(=O)OC)C1C(=O)OC(C)C(=O)c1ccccc1` (stereo not given), the IC50 is > 100 µM (inactive) (AlphaScreen, mean of runs); more than 100 µM under setting [1]; > 95 µM (inactive) (FP, mean of runs); more than 95 µM under setting [2]; more than 95 µM under setting [3].
Turning to `Cc1ccc(NC(=O)c2ccc3c(c2)S(=O)(=O)c2ccccc2C3=O)cc1S(=O)(=O)N1CCOCC1`, the IC50 was > 100 µM (inactive) (AlphaScreen, mean of runs); more than 100 µM under setting [1]; > 95 µM (inactive) (FP, mean of runs); more than 95 µM under setting [2]; more than 95 µM under setting [3].

For orientation: IC50 means the concentration at which inhibition is half-maximal.
